# According to EP4656630A1, “NOVEL COMPOUND AS LYSYL-TRNA SYNTHETASE 1 INHIBITOR, AND USE THEREOF” (Zymedi Co., Ltd., priority 2023, dated 2024):
# pEC50: −log10 of the molar value.
# Assays:
# [1] = Microsomal metabolic stability, human; format: in vitro ADME
# Description: (§1) Metabolic stability (MS) evaluation was conducted for the selected compounds by measuring in vitro stability in two species, rat and human, according to the microsomal stability measurement method. As a result, it was identified that MS varied depending on the transformation of parts A, B, and C.
# KARS1 and 37LR = molecular target: T1, KARS1 and 37LR (Homo sapiens, UniProt Q15046); assay: Cell-free ELISA of KARS1 and 37LR (laminin receptor) binding; settings: 10 µM compound, 1 hour, plate coated with KARS1 (1-207aa), LRF
# T1 construct: KARS1 (1-207aa)
# T1 sequence (Q15046 1-207): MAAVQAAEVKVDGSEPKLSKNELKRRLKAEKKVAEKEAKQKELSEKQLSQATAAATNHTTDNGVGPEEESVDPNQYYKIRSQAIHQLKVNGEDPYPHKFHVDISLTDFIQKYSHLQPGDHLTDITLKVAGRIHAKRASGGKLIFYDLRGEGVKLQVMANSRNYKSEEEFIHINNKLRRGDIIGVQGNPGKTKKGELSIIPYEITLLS
# Description: Next, based on the mechanism of action, a cell-free ELISA analysis was conducted to select compounds with high inhibitory activity on the binding of KARS1 and LR (laminin receptor).
# Raw264.7 cells = assay: KARS1-induced trans-migration assay; format: cell-based, mouse; settings: Mus musculus, RAW264.7; for inhibition at 1 µM: 1 µM compound, read-out: KARS1-induced Raw264.7 cell migration (% inhibition, 1uM)
# Description: C0001 inhibits the binding of KARS1 and 67LR, thereby blocking the migration of monocytes/macrophages and suppressing inflammation. Accordingly, a trans-migration assay using mouse macrophages (Raw264.7) was conducted to preliminarily screen drugs that inhibit the migration of monocytes/macrophages.
# Based on this, when KARS1 protein was directly treated externally instead of LN, the trans-migration of Raw264.7 was induced, and the cell migration inhibitory effect of the KARS1 inhibitor C0001 was confirmed. It was verified that C0001, which specifically binds to KARS1, can inhibit cell migration by binding to extracellular KARS1, in addition to the mechanism of inhibiting cell membrane migration of KARS1 induced by laminin and its binding to 67LR, thereby enabling this analysis to be used as a direct method for evaluating in vitro activity against KARS1.
# Next, preliminary candidate substances with high inhibitory activity at 1 µM were treated at concentrations of 0.1~4 µM for analysis.
# [2] = Rat pharmacokinetics (po and iv) and bioavailability; format: in vivo; settings: for Cmax / Tmax / half-life / AUC: in vivo; for AUC value increase at 30 mpk: 30 mpk compared with 10 mpk
# Description: For this purpose, formulations suitable for peroral administration (po) and intravenous injection (iv) for each compound were first selected to ensure stable PK progression.
# The formulation was selected under the condition of maintaining a clear solution for more than 1 hour at 10 and 30 mpk doses based on po, and the iv formulation was modified when iv use was not possible based on po (Table 8).
# To confirm the oral administration potential of the selected compounds, 10 mpk rat po PK was conducted. The PK profile and key indicators after administering 10 mpk to five compounds, C0001, 25, 41, 42, and 43, are shown in Figure 3 and Table 9.
# Based on the previous 10 mpk po rat PK results, 30 mpk po rat PK was conducted for four compounds, C0001, 25, 41, and 43, to confirm changes in the blood PK profile of the substances with increasing doses.
# For these compounds, 2 mpk iv rat PK was conducted to calculate bioavailability (BA) (Table 11).
# [3] = Microsomal metabolic stability, rat; format: in vitro ADME
# Description: as §1
# Raw 264.7 cells = assay: LN (Laminin 421)-induced immune cell migration, Transwell; format: cell-based; settings: Mus musculus, RAW264.7; for inhibition at 3 µM: 3 µM compound, LN (Laminin 421 1 µg/ml), 24 hours, % inhibition compared to control group, read-out: Migration inhibitor % (3uM)
# Description: Cell migration was assessed based on the method described in the prior literature (Park, S. G. et al. Human lysyl-tRNA synthetase is secreted to trigger proinflammatory response. Proceedings of the National Academy of Sciences, 2005, 102.18: 6356-6361.). The specific experimental method is as follows. A Transwell (Corning#3421-5µm pore) was coated with gelatin (0.5mg/ml), and then Raw 264.7 cells (1 x 10^5 cells/well) were seeded in the upper chamber. Serum-free medium (Serum Free DMEM, 500 µl) containing LN (Laminin 421 1 µg/ml) was added to the lower chamber. Each compound was treated at a concentration of 3µM in the upper chamber. After 24 hours, the cells were fixed with 70% methanol for 30 minutes and stained with 50% hematoxylin for 30 minutes. Non-migrating cells on the upper side of the membrane were removed with a cotton swab, and the membrane was mounted on a slide. Migrating cells on the lower side of the membrane were observed under a high-power microscope, and the number of cells was measured from the obtained images and expressed as the inhibition rate (% inhibition) compared to the control group.
# [4] = S9 metabolic stability, rat; format: in vitro ADME
# Description: (§2) Among these, secondary MS measurements were conducted for Compound 25 (C0047), Compound 43 (C0216), and C0001 using the S9 method. This test measured the remaining % at 30, 45, and 60 minutes for four species: mouse, rat, dog, and human.
# [5] = S9 metabolic stability, human; format: in vitro ADME
# Description: as §2
# [6] = S9 metabolic stability, mouse; format: in vitro ADME
# Description: as §2
# [7] = S9 metabolic stability, dog; format: in vitro ADME
# Description: as §2
# Organ distribution = format: in vivo; parameters: Organ distribution Plasma (ng/ml): concentration or dose not given beside the values
structure (smiles),measurement,setting,value
"COc1ccc(CCN(c2nc3cccc(F)c3s2)C(C)c2cccc(N3CC[C@@H](C(=O)O)C3)c2)cc1 (stereo partly drawn) [Compound 41, (3R)-1-(3-(1-((7-fluorobenzo[d]thiazol-2-yl)(4-methoxyphenethyl)-amino)ethyl)phenyl)pyrrolidine-3-carboxylic acid]",Metabolic stability (% remaining at 30 min) Human,[1],51%
same,inhibition at 10 µM,KARS1 and 37LR,69.6%
same,inhibition at 1 µM,Raw264.7 cells,90.2%
same,Cmax,"[2]; 10 mg/kg, po, 10 mpk",4230 ng/mL
same,Tmax,"[2]; 10 mg/kg, po, 10 mpk",0.83 h
same,half-life,"[2]; 10 mg/kg, po, 10 mpk",1.96 h
same,Cmax,"[2]; 30 mg/kg, po, 30 mpk",6470 ng/mL
same,Tmax,"[2]; 30 mg/kg, po, 30 mpk",1 h
same,half-life,"[2]; 30 mg/kg, po, 30 mpk",2.13 h
same,AUC,"[2]; po, 30 mg/kg, 30 mpk",28500 ng·h/mL
same,AUC (ng*h/ml),"[2]; po, 10 mpk, 10 mg/kg","exceeding 5,000 ng*h/ml"
same,AUC (ng*h/ml),"[2]; po, 10 mpk, listed as 41 (C0189), 10 mg/kg","11,859 ng*h/ml"
same,AUC value increase at 30 mpk,[2]; po,approximately 2.4 times
same,Metabolic stability (% remaining at 30 min) Rat,[3],58%
same,inhibition at 3 µM,Raw 264.7 cells,58.7%
"COc1ccc(CCN(c2nc3cccc(F)c3s2)C(C)c2ccc(N3CC[C@H](C(=O)O)C3)cc2)cc1 (stereo partly drawn) [Compound 42, (3S)-1-(4-(1-((7-fluorobenzo[d]thiazol-2-yl)(4-methoxyphenethyl)-amino)ethyl)phenyl)pyrrolidine-3-carboxylic acid]",Metabolic stability (% remaining at 30 min) Human,[1],76%
same,inhibition at 10 µM,KARS1 and 37LR,65.6%
same,inhibition at 1 µM,Raw264.7 cells,85.8%
same,Cmax,"[2]; 10 mg/kg, po, 10 mpk",240 ng/mL
same,Tmax,"[2]; 10 mg/kg, po, 10 mpk",0.67 h
same,half-life,"[2]; 10 mg/kg, po, 10 mpk",1.32 h
same,AUC,"[2]; po, 10 mg/kg, 10 mpk",1420 ng·h/mL
same,Metabolic stability (% remaining at 30 min) Rat,[3],43%
same,inhibition at 3 µM,Raw 264.7 cells,63.1%
"COc1ccc(CCN(Cc2ccc(N3CC[C@H](C(=O)O)C3)cc2)c2nc3c(F)c(F)cc(F)c3s2)cc1 [Compound 43, (S)-1-(4-(((4-methoxyphenethyl)(4,5,7-trifluorobenzo[d]thiazol-2-yl)amino)methyl)phenyl)pyrrolidine-3-carboxylic acid]",Metabolic stability (% remaining at each time) Rat (min) 30,[4]; 30 min,99.2%
same,Metabolic stability (% remaining at each time) Rat (min) 45,[4]; 45 min,81.6%
same,Metabolic stability (% remaining at each time) Rat (min) 60,[4]; 60 min,88.0%
same,Metabolic stability (% remaining at each time) Human (min) 30,[5]; 30 min,87.3%
same,Metabolic stability (% remaining at each time) Human (min) 45,[5]; 45 min,80.7%
same,Metabolic stability (% remaining at each time) Human (min) 60,[5]; 60 min,92.4%
same,Metabolic stability (% remaining at each time) Mouse (min) 30,[6]; 30 min,79.8%
same,Metabolic stability (% remaining at each time) Mouse (min) 45,[6]; 45 min,77.7%
same,Metabolic stability (% remaining at each time) Mouse (min) 60,[6]; 60 min,73.2%
same,Metabolic stability (% remaining at each time) Dog (min) 30,[7]; 30 min,110.9%
same,Metabolic stability (% remaining at each time) Dog (min) 45,[7]; 45 min,117.3%
same,Metabolic stability (% remaining at each time) Dog (min) 60,[7]; 60 min,100.6%
same,Organ distribution (ratio per plasma) Brain,Organ distribution; 0.5 h,0.09
same,Organ distribution (ratio per plasma) Brain,Organ distribution; 6.0 h,0.92
same,Organ distribution (ratio per plasma) Heart,Organ distribution; 0.5 h,0.42
same,Organ distribution (ratio per plasma) Heart,Organ distribution; 6.0 h,0.35
same,Organ distribution (ratio per plasma) Kidney,Organ distribution; 0.5 h,0.61
same,Organ distribution (ratio per plasma) Kidney,Organ distribution; 6.0 h,1.89
same,Organ distribution (ratio per plasma) Liver,Organ distribution; 0.5 h,1.70
same,Organ distribution (ratio per plasma) Liver,Organ distribution; 6.0 h,3.56
same,Organ distribution (ratio per plasma) Lung,Organ distribution; 0.5 h,4.30
same,Organ distribution (ratio per plasma) Lung,Organ distribution; 6.0 h,0.55
same,Organ distribution Plasma (ng/ml),Organ distribution; 0.5 h,"19,420 ng/ml"
same,Organ distribution Plasma (ng/ml),Organ distribution; 6.0 h,"5,366 ng/ml"
same,Metabolic stability (% remaining at 30 min) Human,[1],85%
same,inhibition at 10 µM,KARS1 and 37LR,67.1%
same,inhibition at 1 µM,Raw264.7 cells,98.4%
same,pEC50,"Raw264.7 cells; KARS1-induced cell migration, 0.1~4 µM",6.19
same,Cmax,"[2]; 10 mg/kg, po, 10 mpk",3320 ng/mL
same,Tmax,"[2]; 10 mg/kg, po, 10 mpk",1.33 h
same,half-life,"[2]; 10 mg/kg, po, 10 mpk",0.95 h
same,Cmax,"[2]; 30 mg/kg, po, 30 mpk",12800 ng/mL
same,Tmax,"[2]; 30 mg/kg, po, 30 mpk",1.67 h
same,half-life,"[2]; 30 mg/kg, po, 30 mpk",1 h
same,AUC,"[2]; iv, 2 mg/kg, 2 mpk",2690 ng·h/mL
same,AUC,"[2]; po, 10 mg/kg, 10 mpk",> 5000 ng·h/mL
same,AUC,"[2]; po, 10 mg/kg, 10 mpk (Table 11)",9710 ng·h/mL
same,AUC,"[2]; po, 30 mg/kg, 30 mpk",55300 ng·h/mL
same,AUC,"[2]; po, 30 mg/kg, 30 mpk (Table 11)",55300 ng·h/mL
same,BA (%),"[2]; po, 10 mpk against iv 2 mpk",72.2%
same,AUC (ng*h/ml),"[2]; po, 10 mpk, listed as 43 (C0216), 10 mg/kg","9,711 ng*h/ml"
same,BA (%),"[2]; po, 30 mpk against iv 2 mpk",137.0%
same,AUC value increase at 30 mpk,[2]; po,5.7 times
same,Metabolic stability (% remaining at 30 min) Rat,[3],80%
same,inhibition at 3 µM,Raw 264.7 cells,31.1%
same,pEC50,"Raw 264.7 cells; LN-induced cell migration, read-out: EC50 for cell migration inhibition induced by LN",5.29
"COc1ccc(CCN(Cc2ccc(N3CCC(C(=O)O)C3)cc2)c2nc3cccc(F)c3s2)cc1 (stereo not drawn) [Compound 13, 1-(4-(((7-fluorobenzo[d]thiazol-2-yl)(4-methoxyphenethyl)amino)-methyl)phenyl)pyrrolidine-3-carboxylic acid]",Metabolic stability (% remaining at 30 min) Human,[1],74%
same,inhibition at 10 µM,KARS1 and 37LR,83.9%
same,inhibition at 1 µM,Raw264.7 cells,93.4%
same,Metabolic stability (% remaining at 30 min) Rat,[3],90%
same,inhibition at 3 µM,Raw 264.7 cells,90%
